According to patent US20240025906A1 (NEURON23, INC., priority 2022, published 2024):
pIC50, pKd: −log10 of the molar value. Read-outs that look alike come from different tables or passages of the source.

Columns and labels:
TYK2 JH2 = biological target: T1, TYK2 JH2 (Homo sapiens, UniProt P29597); assay: TYK2 JH2 binding assay (KINOMEscan KdELECT competitive binding); conditions: TYK2 JH2 domain
T1 construct: purchased DiscoverX (KINOMEscan KdELECT service); host or cells: E. coli BL21-derived (T7 phage display) or HEK-293
How it was run: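 Kd values come from qPCR measurement of kinase retained on an immobilized-ligand resin after 1 h room-temperature competition with compound in an 11-point, 3-fold series.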

[1] = test system: JAK1/TYK2 pSTAT5 (Tyr694/699) in THP-1 cell line; assay: IFNa-stimulated JAK1/TYK2 pSTAT5 (Tyr694/699) inhibition cellular assay, AlphaLISA; format: cell-based; conditions: Homo sapiens, THP-1 cells, AlphaLISA (Assay B)
How it was run: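 An eight-point 6-fold titration of compound (0.04–10000 nM final) is given to THP-1 cells for 1 h before 30 min of IFNa exposure. Phospho-STAT5 is read by AlphaLISA at 615 nm. IC50 values are derived by logistic regression with bottom set to 0 and Hill slope set to −1.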

[2] = DiscoverX KINOMEscan KdELECT (Assay A), read-out: Biochemical TYK2_DiscoverX_JH2_BND_Kd
[3] = IFNa-stimulated, read-out: Cellular_THP1_IFNa-pSTATS_TYK2
[4] = KINOMEscan KdELECT (Assay A), read-out: Biochemical TYK2_DiscoverX_JH2_BND_Kd
[5] = IFNa-stimulated pSTAT5 (Tyr694/699), read-out: Cellular_THP1_IFNa-pSTATS_TYK2
[6] = KINOMEscan KdELECT (Assay A), read-out: Biochemical TYK2_JH2_Kd
[7] = IFNa-stimulated, read-out: Cellular THP1_IFNa-pSTATS_IC50

T1 sequence (P29597 589-875 limits assumed): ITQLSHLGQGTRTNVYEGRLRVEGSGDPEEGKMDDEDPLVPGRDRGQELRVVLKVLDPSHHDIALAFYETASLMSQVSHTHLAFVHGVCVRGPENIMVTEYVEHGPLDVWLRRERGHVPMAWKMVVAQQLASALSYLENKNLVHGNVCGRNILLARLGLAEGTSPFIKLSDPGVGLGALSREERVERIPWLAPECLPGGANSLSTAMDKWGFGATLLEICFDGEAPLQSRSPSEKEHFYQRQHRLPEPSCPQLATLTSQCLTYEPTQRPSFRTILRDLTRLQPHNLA

SMILES	pKd (TYK2 JH2; [2])	pIC50 [1, 3]	pKd (TYK2 JH2; [4])	further results
CNc1ncc(-c2nc3cc(N4CCOCC4)ccc3o2)c2cc(NC(=O)C3(F)CC3)ncc12 [Example 425, 1-fluoro-N-(8-(methylamino)-5-(5-morpholinobenzo[d]oxazol-2-yl)-2,7-naphthyridin-3-yl)cyclopropane-1-carboxamide]	≥ 7.00	≥ 6.30		
CNc1ncc(-c2nc3cc(N4CCOCC4)ccc3o2)c2cc(NC(=O)C3CC3)ncc12 [Example 345, N-(8-(methylamino)-5-(5-morpholinobenzo[d]oxazol-2-yl)-2,7-naphthyridin-3-yl)cyclopropanecarboxamide]	≥ 7.00	≥ 6.30		
CNc1ncc(-c2nc3ccc(N4CCOCC4)cn3n2)c2cc(NC(=O)C3(F)CC3)nnc12 [Example 886, 1-fluoro-N-(8-(methylamino)-5-(6-morpholino-[1,2,4]triazolo[1,5-a]pyridin-2-yl)pyrido[3,4-c]pyridazin-3-yl)cyclopropane-1-carboxamide]		≥ 6.30	≥ 7.00	
CNc1ncc(-c2nc3ccc(N4CCO[C@@H](C(F)(F)F)C4)cn3n2)c2cc(NC(=O)C3CC3)ncc12 [Example 482, (R)-N-(8-(methylamino)-5-(6-(2-(trifluoromethyl)morpholino)-[1,2,4]triazolo[1,5-a]pyridin-2-yl)-2,7-naphthyridin-3-yl)cyclopropanecarboxamide]	≥ 7.00	≥ 6.30		
CNc1ncc(C#Cc2ccc(OCC3CN(C(C)=O)C3)cc2)c2cc(NC(=O)C3CC3)ncc12 [Example 679, N-(5-((4-((1-acetylazetidin-3-yl)methoxy)phenyl)ethynyl)-8-(methylamino)-2,7-naphthyridin-3-yl)cyclopropanecarboxamide]		≥ 6.30	≥ 7.00	
CNc1ncc(-c2nc3cc(N4C[C@@H](C)O[C@H](C)C4)ccc3o2)c2cc(NC(=O)[C@H]3C[C@H]3C)ncc12 [Example 1070, (1S,2R)-N-(5-(5-((2R,6R)-2,6-dimethylmorpholino)benzo[d]oxazol-2-yl)-8-(methylamino)-2,7-naphthyridin-3-yl)-2-methylcyclopropane-1-carboxamide]			≥ 7.00	pIC50 [1, 5]: ≥ 6.30
[2H]C([2H])([2H])Nc1ncc(-c2nc3cc(OC([2H])([2H])[2H])ccc3o2)c2cc(NC(=O)[C@H]3C[C@H]3C)ncc12 [Example 439, (1S,2R)—N-(5-(5-(methoxy-d3)benzo[d]oxazol-2-yl)-8-((methyl-d3)amino)-2,7-naphthyridin-3-yl)-2-methylcyclopropane-1-carboxamide]	≥ 7.00	≥ 6.30		
CNc1ncc(C#Cc2ccc3c(c2)nnn3C)c2cc(NC(=O)C3CC3)ncc12 [Example 618, N-(5-((1-methyl-1H-benzo[d][1,2,3]triazol-5-yl)ethynyl)-8-(methylamino)-2,7-naphthyridin-3-yl)cyclopropanecarboxamide]		≥ 6.30	≥ 7.00	
[2H]C([2H])([2H])Nc1ncc(-c2nc3cc(OC([2H])([2H])[2H])ccc3o2)c2cc(NC(=O)C3CC3)ncc12 [Example 365, N-(5-(5-(methoxy-d3)benzo[d]oxazol-2-yl)-8-((methyl-d3)amino)-2,7-naphthyridin-3-yl)cyclopropanecarboxamide]	≥ 7.00	≥ 6.30		
CNc1ncc(C#Cc2ccc3c(c2)CC[C@H](CO)O3)c2cc(NC(=O)C3CC3)ncc12 (single isomer, unassigned) [Example 982]		≥ 6.30	≥ 7.00	
CNc1nccc2cc(NC(=O)C3CC3)ncc12 [Example 2, N-(8-(methylamino)-2,7-naphthyridin-3-yl)cyclopropanecarboxamide]				pKd (TYK2 JH2; [6]): 6.00 to 7.00; pIC50 [1, 7]: < 6.30
CNc1ncc(C#Cc2ccc(S(C)(=O)=O)cn2)c2cc(NC(=O)C3CC3)ncc12 [Example 640, N-(8-(methylamino)-5-((5-(methylsulfonyl)pyridin-2-yl)ethynyl)-2,7-naphthyridin-3-yl)cyclopropanecarboxamide]		≥ 6.30	≥ 7.00	
CNc1ncc(-c2cc3cc(OC)ccn3n2)c2cc(NC(=O)C3CC3)ncc12 [Example 875, N-(5-(5-methoxypyrazolo[1,5-a]pyridin-2-yl)-8-(methylamino)-2,7-naphthyridin-3-yl)cyclopropanecarboxamide]		≥ 6.30	≥ 7.00	
[2H]C([2H])([2H])Nc1ncc(-c2nc3cc(N4CCOCC4)ccc3o2)c2cc(NC(=O)[C@H]3C[C@H]3C)ncc12 [Example 443, (1S,2R)-2-methyl-N-(8-((methyl-d3)amino)-5-(5-morpholinobenzo[d]oxazol-2-yl)-2,7-naphthyridin-3-yl)cyclopropane-1-carboxamide]	≥ 7.00	≥ 6.30		
CNc1ncc(-c2nc3ccc(N4CCC(F)(F)CC4)cn3n2)c2cc(NC(=O)C3CC3)ncc12 [Example 483, N-(5-(6-(4,4-difluoropiperidin-1-yl)-[1,2,4]triazolo[1,5-a]pyridin-2-yl)-8-(methylamino)-2,7-naphthyridin-3-yl)cyclopropanecarboxamide]	≥ 7.00	≥ 6.30		
CNc1ncc(C#Cc2ccc3nc(CO)sc3c2)c2cc(NC(=O)C3CC3)ncc12 [Example 668, N-(5-((2-(hydroxymethyl)benzo[d]thiazol-6-yl)ethynyl)-8-(methylamino)-2,7-naphthyridin-3-yl)cyclopropanecarboxamide]		≥ 6.30	≥ 7.00	
CNc1ncc(/C(C)=C/c2ccccc2)c2cc(NC(=O)C3CC3)ncc12 [Example 118, (E)-N-(8-(methylamino)-5-(1-phenylprop-1-en-2-yl)-2,7-naphthyridin-3-yl)cyclopropanecarboxamide]				pKd (TYK2 JH2; [6]): ≥ 7.00; pIC50 [1, 7]: ≥ 6.30
CNc1ncc(-c2nc3cccc(COC)c3o2)c2cc(NC(=O)C3CC3)ncc12 [Example 267, N-(5-(7-(methoxymethyl)benzo[d]oxazol-2-yl)-8-(methylamino)-2,7-naphthyridin-3-yl)cyclopropanecarboxamide]	≥ 7.00	≥ 6.30		
CNc1ncc(C2=CCC(c3nc[nH]n3)C2)c2cc(NC(=O)C3CC3)ncc12 (centres unmarked) [Example 833, N-(5-(4-(1H-1,2,4-triazol-3-yl)cyclopent-1-en-1-yl)-8-(methylamino)-2,7-naphthyridin-3-yl)cyclopropanecarboxamide]		< 6.30	≥ 7.00	
CNc1ncc(-c2nc3ccc(-n4cccn4)cn3n2)c2cc(NC(=O)C3CC3)ncc12 [Example 1038]			≥ 7.00	pIC50 [1, 5]: ≥ 6.30
CNc1ncc(-c2nc3ccc(N4CCOCC4)cn3n2)c2cc(NC(=O)[C@H]3C[C@H]3C)ncc12 [Example 525, (1S,2R)-2-methyl-N-(8-(methylamino)-5-(6-morpholino-[1,2,4]triazolo[1,5-a]pyridin-2-yl)-2,7-naphthyridin-3-yl)cyclopropane-1-carboxamide]	≥ 7.00	≥ 6.30		
CNc1ncc(-c2nc3cc(N4CCC[C@@H](OC)C4)ccc3o2)c2cc(NC(=O)C3CC3)ncc12 [Example 290, (R)-N-(5-(5-(3-methoxypiperidin-1-yl)benzo[d]oxazol-2-yl)-8-(methylamino)-2,7-naphthyridin-3-yl)cyclopropanecarboxamide]	≥ 7.00	≥ 6.30		
CNc1ncc(C#Cc2ccc(S(=O)(=O)C3CC3)cc2)c2cc(NC(=O)C3CC3)ncc12 [Example 637, N-(5-((4-(cyclopropylsulfonyl)phenyl)ethynyl)-8-(methylamino)-2,7-naphthyridin-3-yl)cyclopropanecarboxamide]		≥ 6.30	≥ 7.00	
CNc1ncc(/C=C/c2ccccc2)c2cc(NC(=O)C3CC3)ncc12 [Example 33, (E)-N-(8-(methylamino)-5-styryl-2,7-naphthyridin-3-yl)cyclopropanecarboxamide]				pKd (TYK2 JH2; [6]): ≥ 7.00; pIC50 [1, 7]: ≥ 6.30
CNc1ncc(-c2nc3cc(N4CCC[C@@H](C#N)C4)ccc3o2)c2cc(NC(=O)C3CC3)ncc12 [Example 292, (R)-N-(5-(5-(3-cyanopiperidin-1-yl)benzo[d]oxazol-2-y1)-8-(methylamino)-2,7-naphthyridin-3-yl)cyclopropanecarboxamide]	≥ 7.00	≥ 6.30		
CNc1ncc(-c2cc(-c3ccccc3)[nH]n2)c2cc(NC(=O)C3CC3)ncc12 [Example 881, N-(8-(methylamino)-5-(5-phenyl-1H-pyrazol-3-yl)-2,7-naphthyridin-3-yl)cyclopropanecarboxamide]		< 6.30	≥ 7.00	
CCNc1ncc(-c2nc3cc(N4CCOCC4)ccc3o2)c2cc(NC(=O)C3CC3)ncc12 [Example 458, N-(8-(ethylamino)-5-(5-morpholinobenzo[d]oxazol-2-yl)-2,7-naphthyridin-3-yl)cyclopropanecarboxamide]	≥ 7.00	≥ 6.30		
CNc1ncc(-c2ccc(-c3c(C)cnn3C)cc2)c2cc(NC(=O)C3CC3)ncc12 [Example 847, N-(5-(4-(1,4-dimethyl-1H-pyrazol-5-yl)phenyl)-8-(methylamino)-2,7-naphthyridin-3-yl)cyclopropanecarboxamide]		≥ 6.30	≥ 7.00	
